Patent US11098056B2, “UDP glycosyltransferase inhibitors and methods of use” (GENZYME CORPORATION, priority 2018, dated 2021)
One block for each molecule: values may come before it.

Experiments:
UGT8 [1] = molecular target: T1, UGT8 (Homo sapiens, UniProt Q16880); assay: In vitro sulfatide (SFT) synthesis inhibition in OE19 cells, LC-MS/MS readout; format: cell-based; conditions: 72 hr, sulfatide by LC-MS/MS, read-out: Potency range (IC50, In-vitro SFT)
T1 construct: host or cells: OE19 cells
T1 sequence (Q16880 21-541): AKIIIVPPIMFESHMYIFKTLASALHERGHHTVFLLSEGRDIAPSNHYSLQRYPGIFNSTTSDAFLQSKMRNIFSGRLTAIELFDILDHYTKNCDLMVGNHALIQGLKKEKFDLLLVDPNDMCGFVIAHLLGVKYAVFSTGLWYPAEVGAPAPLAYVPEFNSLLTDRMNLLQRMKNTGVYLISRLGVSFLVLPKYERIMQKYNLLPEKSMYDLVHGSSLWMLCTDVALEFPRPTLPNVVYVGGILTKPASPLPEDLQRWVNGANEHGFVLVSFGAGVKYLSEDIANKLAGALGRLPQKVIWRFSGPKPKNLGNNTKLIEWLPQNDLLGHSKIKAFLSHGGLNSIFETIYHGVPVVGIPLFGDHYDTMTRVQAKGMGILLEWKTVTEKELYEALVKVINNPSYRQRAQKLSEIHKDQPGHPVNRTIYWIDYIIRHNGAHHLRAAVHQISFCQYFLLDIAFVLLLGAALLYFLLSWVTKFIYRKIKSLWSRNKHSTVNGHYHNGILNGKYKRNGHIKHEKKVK
Procedure, shortened: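 OE19 cells, 2,500/well, exposed to compound dose-downs in triplicate for 72 hr at 37° C (screening at 10 μM final). Sulfatide quantified by LC-MS/MS (C8 UPLC, isocratic, negative-ion MRM) with C17 SFT internal standard; IC50 from concentration-response curves.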

UGT8 [2] = molecular target: T2, UGT8 (Mus musculus, UniProt Q64676); assay: Acute in vivo target engagement in mouse kidney: inhibition of de novo GalCer and SFT synthesis (13C-Gal incorporation); conditions: 5 hr
T2 construct: Groups of 5 male C57Bl/6 mice, 6-9 wks of age (Charles River Laboratories); tissue Charles River Laboratories; host or cells: mouse kidney (adult C57Bl/6) and mid-/hind brain (neonatal P14-P21 mice)
T2 sequence (Q64676 21-541): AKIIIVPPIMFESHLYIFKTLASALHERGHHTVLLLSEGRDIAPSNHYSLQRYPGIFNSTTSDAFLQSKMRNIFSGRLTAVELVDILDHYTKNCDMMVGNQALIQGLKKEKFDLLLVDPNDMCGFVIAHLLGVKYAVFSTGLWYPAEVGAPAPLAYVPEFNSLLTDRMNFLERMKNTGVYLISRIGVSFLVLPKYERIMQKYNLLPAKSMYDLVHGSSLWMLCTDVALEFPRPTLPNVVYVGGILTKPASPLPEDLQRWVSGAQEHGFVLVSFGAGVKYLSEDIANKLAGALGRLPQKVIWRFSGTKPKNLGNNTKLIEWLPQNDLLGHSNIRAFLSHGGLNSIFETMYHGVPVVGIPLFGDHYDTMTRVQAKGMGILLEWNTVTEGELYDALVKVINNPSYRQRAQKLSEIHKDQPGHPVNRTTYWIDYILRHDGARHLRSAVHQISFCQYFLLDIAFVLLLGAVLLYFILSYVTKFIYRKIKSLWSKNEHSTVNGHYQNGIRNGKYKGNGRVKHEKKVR
Protocol: In vivo target engagement was initially assessed in an adult mouse kidney model assessing de novo synthesis inhibition. This model was selected because the high rate of GalCer and SFT synthesis and turnover in kidney facilitated development of an acute one-day model assessing the effect of a single administration of compound at different doses. Inhibition of de novo synthesis was determined by measuring the amount of 13C6 galactose (13C-Gal; CIL, cat #CLM-1570-pk) incorporated into GalCer and SFT.
Groups of 5 male C57Bl/6 mice, 6-9 wks of age (Charles River Laboratories) were maintained in an ALAAC-accredited vivarium with food and water ad libitum and were allowed to acclimate one week before initiating studies. Three to 5 dose groups received test article formulated in a clinically-acceptable formulation, administered by oral gavage; the control group received vehicle alone. One hr after administration of test article, animals received an intraperitoneal (i.p.) injection of 13C-Gal (3 g/kg); 5 hr after administration of test article, animals were euthanized and a kidney was removed and divided into two longitudinal samples that were snap-frozen and stored at −80° C. until processing for test article tissue exposure and lipid analysis (GalCer and SFT). Typically, brain and plasma samples were also collected for test article exposure.
(§1) Mass Spectrometer Analysis of SFT
(§2) Quantitative analysis of sphingolipids (SLs) was performed using liquid chromatography with tandem mass spectrometry analysis (LC-MS/MS). Briefly, to extract glucosylceramide (GlcCer), galactosylceramide (GalCer), and sulfatide (ST), an aliquot of 10 μL of mouse tissue homogenate (100 mg/ml in water) was mixed with 1 mL of extraction solution (0.2% Formic Acid; 5 mM Ammonium formate in (50:50) Methanol:Acetonitrile (v/v) with internal standards (IS)). C17-ST and D35 labeled C18-GalCer were used for IS. The mixtures were vortexed and centrifuged. The resulting supernatants were transferred to HPLC vials for LC-MS/MS analysis. GlcCer and GalCer were separated using a Waters Acquity UPLC and Atlantis HILIC Silica column (2.1 mm×150 mm, […], Waters Corp., Milford, Mass.) and analyzed by an API 5000 triple quadrupole mass spectrometer in MRM mode (Applied Biosystems, Foster City, Calif.). ST were analyzed using a Waters Acquity UPLC and BEH C18 column (2.1 mm×50 mm, […], Waters Corp., Milford, Mass.) and analyzed by an API 6500 triple quadrupole mass spectrometer in MRM mode (Applied Biosystems, Foster City, Calif.).

UGT8 [3] = molecular target: T2, UGT8; assay: Acute in vivo target engagement in neonatal mouse brain: inhibition of de novo GalCer and SFT synthesis (13C-Gal incorporation); conditions: neonatal mouse (P14-P21) brain, 5 hr
Source text: SFT biosynthesis and turnover in the myelin of adult mice is very low, necessitating development of a short-term acute model of de novo synthesis inhibition. To do this, we took advantage of the fact that unlike primates in which most developmental myelination occurs in utero, in rodents, peak myelination occurs between postnatal day 14 (P14) and P22.
Groups of 5 neonatal mice age-matched between P14 and P21 received test article formulated in a clinically-acceptable formulation, administered by oral gavage; the control group received vehicle alone. One hr after administration of test article, animals received an i.p. injection of 13C-Gal (3 g/kg); 5 hr after administration of test article, animals were euthanized, brains were removed and dissected for recovery of mid- and hind brain which was snap-frozen and stored at −80° C. until analysis. Plasma samples were also collected for test article exposure analysis.
as §1, §2

IC50 (UGT8 [1]): < 100 nM
kidney GalCer % inh (UGT8 [2]; single oral dose 1 mg/kg): C (C < 40%)
kidney Sulfatide % inh (UGT8 [2]; single oral dose 1 mg/kg): C (C < 40%)
kidney GalCer % inh (UGT8 [2]; single oral dose 3 mg/kg): C (C < 40%)
kidney Sulfatide % inh (UGT8 [2]; single oral dose 3 mg/kg): C (C < 40%)
kidney GalCer % inh (UGT8 [2]; single oral dose 10 mg/kg): B (40% < B < 80%)
kidney Sulfatide % inh (UGT8 [2]; single oral dose 10 mg/kg): B (40% < B < 80%)
kidney GalCer % inh (UGT8 [2]; single oral dose 30 mg/kg): A (A > 80%)
kidney Sulfatide % inh (UGT8 [2]; single oral dose 30 mg/kg): A (A > 80%)
kidney GalCer % inh (UGT8 [2]; single oral dose 100 mg/kg): A (A > 80%)
kidney Sulfatide % inh (UGT8 [2]; single oral dose 100 mg/kg): A (A > 80%)
brain GalCer % inh (UGT8 [3]; single oral dose 1 mg/kg): B (40% < B < 80%)
brain Sulfatide % inh (UGT8 [3]; single oral dose 1 mg/kg): B (40% < B < 80%)
brain GalCer % inh (UGT8 [3]; single oral dose 3 mg/kg): B (40% < B < 80%)
brain Sulfatide % inh (UGT8 [3]; single oral dose 3 mg/kg): B (40% < B < 80%)
brain GalCer % inh (UGT8 [3]; single oral dose 10 mg/kg): A (A > 80%)
brain Sulfatide % inh (UGT8 [3]; single oral dose 10 mg/kg): A (A > 80%)
SMILES: CNC(=O)c1csc2c(C(F)(F)F)cc(O[C@@H]3CCN(C(=O)OCCOC(F)(F)F)[C@H](C)C3)nc12 [Example 375, 2-(Trifluoromethoxy)ethyl (2R,4R)-2-methyl-4-((3-(methylcarbamoyl)-7-(trifluoromethyl)thieno[3,2-b]pyridin-5-yl)oxy)piperidine-1-carboxylate]

IC50 (UGT8 [1]): < 100 nM
kidney GalCer % inh (UGT8 [2]; single oral dose 3 mg/kg): C (C < 40%)
kidney Sulfatide % inh (UGT8 [2]; single oral dose 3 mg/kg): C (C < 40%)
kidney GalCer % inh (UGT8 [2]; single oral dose 10 mg/kg): C (C < 40%)
kidney Sulfatide % inh (UGT8 [2]; single oral dose 10 mg/kg): B (40% < B < 80%)
kidney GalCer % inh (UGT8 [2]; single oral dose 50 mg/kg): B (40% < B < 80%)
kidney Sulfatide % inh (UGT8 [2]; single oral dose 50 mg/kg): A (A > 80%)
brain GalCer % inh (UGT8 [3]; single oral dose 10 mg/kg): A, A, A (A > 80%)
brain Sulfatide % inh (UGT8 [3]; single oral dose 10 mg/kg): A, A, A (A > 80%)
brain GalCer % inh (UGT8 [3]; single oral dose 30 mg/kg): A, A, A (A > 80%)
brain Sulfatide % inh (UGT8 [3]; single oral dose 30 mg/kg): A, A, A (A > 80%)
brain GalCer % inh (UGT8 [3]; single oral dose 100 mg/kg): A, A, A (A > 80%)
brain Sulfatide % inh (UGT8 [3]; single oral dose 100 mg/kg): A, A, A (A > 80%)
SMILES: CNC(=O)c1csc2c(C(F)(F)F)cc(N3CCC(OC(=O)NC4CC4)CC3)nc12 [Example 473, 1-(3-(Methylcarbamoyl)-7-(trifluoromethyl)thieno[3,2-b]pyridin-5-yl)piperidin-4-yl cyclopropylcarbamate]
